Results from ChEMBL document CHEMBL3507680, “University of Dundee, Gates Library screen for HepG2 cell viability”.

Test: Human HepG2 cell viability assay in 384 well format
Assay type: toxicity, cell-based
Parameters: dose 125 nL, time 70.5 hour; concentration not given beside the values
Details: HepG2 cells, read-out: Inhibition

| Compound | cytotoxicity at 70.5 h [%] |
| --- | --- |
| COc1c(CNCc2ccc(CN(C)C)cc2)c(C)nn1C | -4.98 |
| CC(C)OC[C@H]1CCC[C@]12CN(S(=O)(=O)C1CC1)CCO2 | -0.771 |
| CCSc1cc(C(=O)NCCC(=O)N(C)C)ccn1 | -103 |
| Cc1nc(CN2CCC(N(C)Cc3noc(C(C)C)n3)C2)cs1 (stereo not drawn) | 33.4 |
| Cc1ccc2cc(C(=O)N3CCC(O)(C(F)(F)F)CC3)ccc2n1 | 0.437 |
| Cc1cc(C)n(CC2CCCCN2C(=O)c2ccc3[nH]nnc3c2)n1 (stereo not drawn) | -17.7 |
| CN1CCC/C1=N\S(=O)(=O)c1ccc(NC(=O)c2ccc(Cl)cc2)cc1 | 1.42 |
| CC(C)[C@@H]1CN(CCCOc2ccc(F)cc2)C[C@H]1NS(C)(=O)=O | -8.14 |
| CNC(=O)[C@@H]1C[C@H]2CN(Cc3csc(C)n3)C[C@H]2N1C(C)C | -4.84 |
| NC(=O)CCSCc1ccc(Br)c(F)c1 | -8.58 |
| Cc1nc2c(NCC(C)N(C)c3ccccc3)ncnc2o1 (stereo not drawn) | -5.13 |
| CN1CCOC(CNCc2c(Cl)nc3ccccn23)C1 (stereo not drawn) | -19.2 |
| CCc1cnc(N2CCC3(CC(=O)N(Cc4csc(C)n4)C3)C2)nc1 (stereo not drawn) | -12 |
| COc1ccccc1C(=O)Nc1nc2c(s1)CN(S(=O)(=O)C1CC1)CC2 | -3.51 |
| CN(C)C[C@H]1OC[C@@H]2CCN(S(=O)(=O)c3ccccc3)C[C@@H]21 | 22.9 |
| CSc1ccc(OCCN2CCNC(=O)C2C)cc1 (stereo not drawn) | -15.5 |
| COc1ccc(CCC(=O)N(C)CCN2CCOCC2)cc1OC | -7.02 |
| COc1ccc(CC(=O)N2CCCC2Cn2cc(C)cn2)cc1OC (stereo not drawn) | -0.349 |
| Nc1cc(C(=O)NCC2CCN(CCc3ccccc3)C2)ccn1 (stereo not drawn) | -6.39 |
| Cc1cnc(C)c(-c2cccc(-c3ccn(CCN4CCCC4)n3)c2)n1 | 11.2 |
| Cn1cc(CN2C[C@@H](F)[C@@H](OCc3nc4cnccc4[nH]3)C2)cn1 | -1.11 |
| COc1ccc(C(=O)N(C)Cc2c(C)noc2C)cn1 | -4.2 |
| CSc1cccc(CN2CCC(CCC(=O)NCCN(C)C)CC2)c1 | -6.05 |

| Compound | cytotoxicity at 70.5 h [%] |
| --- | --- |
| CN(c1nc(CSc2nnc(Cn3cncn3)o2)cs1)C1CC1 | 0.758 |
| Cc1ccc(CNC(=O)Nc2nnc(C3CC3)s2)n1C | -0.672 |
| CCC(C(=O)NCCc1coc(-c2ccc(C)cc2)n1)N(C)C (stereo not drawn) | 3.11 |
| C=C(C)CNC(C)c1ccc(S(C)(=O)=O)c(F)c1 (stereo not drawn) | -9.09 |
| COCC1CN(C(=O)Cc2cccs2)Cc2nnn(C)c21 (stereo not drawn) | -14.9 |
| CCCC(=O)NC(C)(C)Cc1ccccc1OC | -12.8 |
| N#Cc1ccnc(N2CCC(NCCN3CCOCC3)CC2)c1 | -2.14 |
| Cc1cc(C)cc(CN2CCN(Cc3ccc4nonc4c3)CC2=O)c1 | -0.612 |
| CN(CCC(O)c1ccccc1)c1cc(N2CCOCC2)ncn1 (stereo not drawn) | -11 |
| Cc1noc(C)c1CN1CCc2ncnc(-c3ccncc3)c2CC1 | 42.6 |
| COCCC(=O)N1CCC(c2cncc(Oc3cccnc3)n2)CC1 | -0.961 |
| CCN(Cc1ccncc1)C(=O)CCn1c(C)cc2ccccc21 | -3.9 |
| Cc1cnc(N2CCC3(CCN(CC4CCCC4)C3=O)CC2)nc1 | -11 |
| CCN(Cc1cn(CC2CCNCC2)nn1)CC1CCCO1 (stereo not drawn) | -6.79 |
| CNc1ccnc(N(C)Cc2cc(-c3cccs3)n[nH]2)n1 | 32.5 |
| CC(C)N(C)C(=O)c1ccc(Cl)c(NC(=O)CCN2C(=O)CCC2=O)c1 | -9.99 |
| CN(C)CCN1C[C@@H]2CN(S(=O)(=O)c3ccccc3)C[C@@H]2C1=O | -0.863 |
| O=S(=O)(C1CC1)N1CCC[C@]2(C[C@@H](Oc3ccccn3)CO2)C1 | 14.1 |
| CN(C)CCN1CCCC12CCN(C(=O)c1ccco1)CC2 | -6.82 |
| COc1cnc(CN2CCN(CC(C)C)C(=O)C2C)cc1O (stereo not drawn) | 0.0157 |
| CC(O)CN1CCN(C(=O)CCOc2ccccc2F)CC1 (stereo not drawn) | -17.1 |
| COc1cccc(CN2CC(O)CN(C(=O)C(C)(C)C)CC2=O)c1OC (stereo not drawn) | 50.4 |
| CS(=O)(=O)CCCC(=O)Nc1cc(-c2cccc(F)c2F)n[nH]1 | -16.7 |

| Compound | cytotoxicity at 70.5 h [%] |
| --- | --- |
| c1ccc(CN2C[C@@H]3OCCN(c4cccnc4)[C@@H]3C2)nc1 | -12.2 |
| Cc1ccc([C@]2(O)CC[C@H]3CN(Cc4ccncc4)C[C@H]32)nc1 | 36 |
| Cc1nn(C)c(C)c1C(C)NCc1ccc(OC(C)C)cc1 (stereo not drawn) | -1.94 |
| CC(C)n1c(=O)nc2n1C(=O)N(c1ccc(F)cc1)C2 | -10.1 |
| O=C1NC(=O)c2c3c(nc(O)c21)CCCC3 | 0.775 |
| CN1[C@H](CO)C[C@H](CNCc2ccc(Cl)c(F)c2)[C@@H]1c1ccccc1F | -3.08 |
| CN(CC(=O)NC1CC1)C(=O)c1csc(Br)c1 | -8.41 |
| Cc1cccc(C(=O)NCc2ccccc2)n1 | -15.5 |
| COc1ccc(CN(CC2CCCO2)C(=O)CN2CCCCC2=O)cc1 (stereo not drawn) | -12.9 |
| O=C1COC2(CCN(Cc3ccccn3)CC2)CN1CC1CC1 | -0.792 |
| OC1CCN(CCCn2ccnc2-c2c[nH]cn2)CC1 | -5.95 |
| OC1CCN(c2cncc(CCC3CCCN3)n2)CC1 (stereo not drawn) | -4.54 |
| Cc1ccc2oc(C(=O)N3CCCC(n4cccn4)C3)cc2n1 (stereo not drawn) | 21.1 |
| CCC(CO)N(Cc1ccccc1C)Cc1ccccc1C(=O)O (stereo not drawn) | -2.15 |
| FC(F)(F)CCc1ccnc(N[C@H]2CC[C@H](n3cnnc3)CC2)n1 | -9.96 |
| O=C(O)C1CCCN1c1nc(C2CC2)cc(C(F)(F)F)n1 (stereo not drawn) | 2.63 |
| Cc1ccc(C(=O)N2CCc3ncnc(-c4cnn(C)c4)c3CC2)o1 | -7.08 |
| COc1cccc2ccn(CC(=O)NCC(C)C)c12 | 11.2 |
| c1cnc(N2CCO[C@H]3CN(Cc4ccsc4)C[C@H]32)nc1 | -14.2 |
| CCC(O)CNC(=O)C1(N(C)Cc2ccccc2)Cc2ccccc2C1 (stereo not drawn) | -3.52 |
| Cc1cc(CN2CCC(CNS(=O)(=O)c3ccccc3Cl)CC2)c(C)o1 | -10.4 |
| CSc1ccc(NCC(=O)Nc2c(C)nn(C)c2C)cc1F | -4.28 |
| COc1c(C2CCCN2C(=O)c2csc(C3CC3)n2)c(C)nn1C (stereo not drawn) | 15.2 |

| Compound | cytotoxicity at 70.5 h [%] |
| --- | --- |
| CC1(C(=O)NCc2cccnc2Oc2ccc(F)cc2F)CCCNC1 (stereo not drawn) | -18.2 |
| Cc1cccc(S(=O)(=O)N2CCC3(CC2)CC(N(C)C)CO3)c1 (stereo not drawn) | -10.7 |
| C=C(C)COc1ccccc1C(=O)N(C)C(C)c1c(C)n[nH]c1C (stereo not drawn) | -2.31 |
| O=C(Nc1cn[nH]c1)N(CCCO)C1CCc2ccccc21 (stereo not drawn) | -4.28 |
| c1ccc(CN2CCC(NCCc3ccc4c(c3)CCO4)CC2)nc1 | 0.552 |
| NC(=O)C1CCCN1C1CCN(C(=O)c2ccc3c(c2)OCO3)CC1 (stereo not drawn) | -1.65 |
| COCC1CN(C(=O)c2ccc(C)o2)Cc2nccn2C1 (stereo not drawn) | 14.4 |
| CCc1nc(-c2ccc(C(=O)N3CCC4(CC3)OCCO4)cc2)no1 | -21.2 |
| NC(=O)C1CCN(CCc2ccc(NCc3cccnc3)cc2)CC1 | 4.26 |
| O=C(c1cc(=O)[nH]c(=O)[nH]1)N1CCCC(CO)(CC2CC2)C1 (stereo not drawn) | -10.5 |
| Cc1noc(C)c1NS(=O)(=O)c1cc(Cl)c(Cl)c(C(=O)O)c1 | -9.2 |
| CCn1cc(CN2C[C@H]3CC[C@@H]2CN(C(=O)c2ccncc2)C3)cn1 | 21 |
| CC(=O)N1CCCN(C(=O)C(C)n2cncn2)CC1 (stereo not drawn) | -3.53 |
| CCCN(Cc1cccc(OCCO)c1)Cc1ccccc1OC | 5.31 |
| CN(Cc1ccco1)[C@@H]1CN(Cc2cccnc2)C[C@@H]2CCCO[C@@H]21 | -5 |
| CC(=O)N1CC2(CCN(C(=O)c3ccoc3)C2)C1 | -2.66 |
| COc1ccccc1CCC(=O)N1CCCC(OCc2cccnc2)C1 (stereo not drawn) | 26.8 |
| Cc1ncc2c(n1)CCN(Cc1nc(Cc3ccccc3)no1)C2 | 1.16 |
| Cc1nsc(NC(=O)NC2CCCN(C)C2)n1 (stereo not drawn) | 29.6 |
| COc1cccc(C(C)Nc2ncnc3c2NC(=O)CN3)c1 (stereo not drawn) | 11 |
| O=C(NCc1cccnc1)C1CN(c2cnc3ccccc3n2)CCN1 (stereo not drawn) | 19.1 |
| CN(C)C(=O)CC1CC2(CCN(Cc3ccsc3)CC2)c2ccccc21 (stereo not drawn) | -16.8 |
| Cc1cc(C)c2c(c1)NC(=O)C2CC(=O)O (stereo not drawn) | -4.36 |

| Compound | cytotoxicity at 70.5 h [%] |
| --- | --- |
| O=C(CN(Cc1cccs1)c1ccc(F)cc1)NC1CCOCC1 | -1.98 |
| Cc1ccc(C(=O)Nc2ccc(N3CCCC3)cn2)cc1C | 0.417 |
| CC(C)Sc1nnc(CCNC(=O)OC(C)(C)C)o1 | 26.1 |
| Cc1cnc(NC(=O)c2ccc(C3CCCN3CC(C)C)s2)s1 (stereo not drawn) | -5.46 |
| c1ccc(-c2nnn3c2COC(CNCC2CCOCC2)C3)cc1 (stereo not drawn) | -5.85 |
| O=C(NC1CC1)C1CCc2nnc(-c3cccnc3)n21 (stereo not drawn) | -7.6 |
| Cc1ccnc(CC(C)N(C)Cc2ccc3c(c2)OCCO3)c1 (stereo not drawn) | -0.147 |
| CN(C)C(=O)CN1CCN(C(=O)Cc2csc(-c3ncccn3)n2)CC1 | -4.31 |
| Cc1ccc(OCCN(C)Cc2cscn2)cc1 | -2.46 |
| CC(=O)Nc1nc(C(=O)N2CCCC(n3cncn3)C2)cs1 (stereo not drawn) | -11.2 |
| CC(=O)NCc1nnc2n1CCN(c1ncnc3c(C)csc13)CC2 | 27 |
| Cc1nc2ncc3c(=O)n(C)ccc3n2n1 | -8.63 |
| CCS(=O)(=O)N1CCCC2(CCCN2C(=O)c2cn(C)cn2)C1 (stereo not drawn) | -8.17 |
| CN(C)CC1(O)CCN(Cc2cnc3c(-c4ccccc4)cnn3c2)C1 (stereo not drawn) | -4.22 |
| Cn1ncc2c1C(COCC1CC1)CN(Cc1ccco1)C2 (stereo not drawn) | 4.98 |
| CC(c1cc(F)ccc1F)N(C)Cc1nc2c(cnn2C)c(=O)[nH]1 (stereo not drawn) | 10.4 |
| COc1cc(CN(C)C(C)c2ccccn2)cc2c1OCO2 (stereo not drawn) | -13.1 |
| COCCNS(=O)(=O)c1cccc2c1CN(C(=O)c1cnccn1)CC2 | -3.11 |
| CCn1c(CN2CCC(O)(c3ccc4c(c3)OCO4)CC2)cnc1SC | 1.92 |
| CCN(C(=O)CN1CCC(c2n[nH]c(C3CC3)n2)CC1)C1CC1 | -5.09 |
| O=C(c1coc(-c2ccccc2)n1)N1CCCCC1 | -10.3 |
